Measurements from ChEMBL document CHEMBL1201862, “PubChem BioAssay data set” (2004).
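Method: 48-hour compound exposure of cells in 96-well plates, five concentrations, linear interpolation of endpoints. The concentration for 50% growth inhibition is given as GI50.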 Calls of active or inactive are those of the source. No stated cut-off is given here; in the data, active = GI50 up to about 1.1 µM and inactive = higher.

Tests used:
Assay in all cases: growth of human tumour cells (NCI), 48 h
SN12C = system: SN12C
MDA-MB-435 = system: MDA-MB-435
UO-31 = system: UO-31
SK-OV-3 = system: SK-OV-3
SNB-75 = system: SNB-75
EKVX = system: EKVX
U-251 = system: U-251
RXF 393 = system: RXF 393
UACC-62 = system: UACC-62
MDA-N = system: MDA-N
NCI-H522 = system: NCI-H522
SK-MEL-2 = system: SK-MEL-2
HCT-116 = system: HCT-116
OVCAR-3 = system: OVCAR-3
PC-3 = system: PC-3
ACHN = system: ACHN
NCI/ADR-RES = system: NCI/ADR-RES
UACC-257 = system: UACC-257
KM12 = system: KM12
HOP-92 = system: HOP-92

Measured: GI50

CC(=O)CN/C(C)=N/Nc1ccc([N+](=O)[O-])cc1[N+](=O)[O-]
inactive: SN12C > 100 µM | MDA-MB-435 > 100 µM | UO-31 > 100 µM | SK-OV-3 > 100 µM | SNB-75 > 100 µM | EKVX 52.2 µM | U-251 > 100 µM | RXF 393 > 100 µM | UACC-62 80.9 µM | MDA-N > 100 µM | NCI-H522 > 100 µM | SK-MEL-2 > 100 µM | HCT-116 > 100 µM | OVCAR-3 > 100 µM | PC-3 > 100 µM | ACHN 94.4 µM | NCI/ADR-RES > 100 µM

COc1cc2[nH]c(=O)[nH]c2c2c(C)c[nH]c12
inactive: SN12C > 100 µM | MDA-MB-435 > 100 µM | UO-31 > 100 µM | SK-OV-3 > 100 µM | UACC-257 > 100 µM | SNB-75 > 100 µM | EKVX > 100 µM | U-251 > 100 µM | RXF 393 > 100 µM | UACC-62 > 100 µM | MDA-N > 100 µM | KM12 > 100 µM | NCI-H522 > 100 µM | SK-MEL-2 > 100 µM | HCT-116 > 100 µM | OVCAR-3 > 100 µM | PC-3 > 100 µM | ACHN > 100 µM | NCI/ADR-RES > 100 µM

COC(=O)/C=C(\S/C(=C(/c1ccc(OC)cc1)n1cc(C(=O)OC)c(C(=O)OC)n1)c1ccc(OC)cc1)C(=O)OC
inactive: SN12C 15.5 µM | MDA-MB-435 16.7 µM | UO-31 4.14 µM | SK-OV-3 > 100 µM | UACC-257 8.49 µM | SNB-75 55.1 µM | EKVX 21.6 µM | U-251 33.6 µM | RXF 393 12.6 µM | UACC-62 34.9 µM | MDA-N 19.6 µM | KM12 76.2 µM | SK-MEL-2 32.6 µM | HCT-116 9.98 µM | OVCAR-3 3.42 µM | PC-3 26.6 µM | ACHN 5.13 µM | NCI/ADR-RES 28.7 µM

COC(=O)C1(Cc2ccccc2)Cc2ccccc2C1
inactive: SN12C 25.4 µM | MDA-MB-435 19.2 µM | UO-31 7.73 µM | SK-OV-3 39.6 µM | HOP-92 11.5 µM | UACC-257 24.4 µM | SNB-75 23.3 µM | EKVX 9.84 µM | U-251 25.8 µM | UACC-62 21.5 µM | MDA-N 17.3 µM | KM12 21.8 µM | SK-MEL-2 11.5 µM | HCT-116 17.3 µM | OVCAR-3 > 10 µM | PC-3 29.7 µM | ACHN 18.7 µM | NCI/ADR-RES 21.9 µM

O=C(Sc1c(-c2ccccc2)c(=O)n(-c2ccccc2)c(=S)n1-c1ccccc1)c1cccs1
inactive: SN12C 50.4 µM | MDA-MB-435 56.4 µM | UO-31 > 100 µM | SK-OV-3 35 µM | HOP-92 50 µM | UACC-257 60.3 µM | SNB-75 29.6 µM | EKVX > 100 µM | U-251 84.1 µM | UACC-62 > 10 µM | MDA-N 70 µM | KM12 > 100 µM | NCI-H522 29.2 µM | SK-MEL-2 53 µM | HCT-116 56.2 µM | OVCAR-3 > 100 µM | PC-3 73.8 µM | ACHN 81.8 µM | NCI/ADR-RES 50.8 µM

C1=N\c2ccc(cc2)/N=C\c2ccccc2OCc2cccc(n2)COc2ccccc2/1
inactive: SN12C > 100 µM | MDA-MB-435 > 100 µM | UO-31 > 100 µM | SK-OV-3 > 100 µM | HOP-92 > 100 µM | UACC-257 > 100 µM | EKVX > 100 µM | U-251 45 µM | RXF 393 5.19 µM | UACC-62 > 100 µM | MDA-N > 100 µM | KM12 > 100 µM | NCI-H522 > 100 µM | SK-MEL-2 > 100 µM | HCT-116 > 100 µM | OVCAR-3 > 100 µM | PC-3 > 100 µM | ACHN 61.4 µM | NCI/ADR-RES > 100 µM

CN(C)CC1COC2Cc3ccccc3C1O2 (stereo not drawn)
inactive: SN12C > 100 µM | MDA-MB-435 > 100 µM | UO-31 > 100 µM | SK-OV-3 > 100 µM | HOP-92 > 100 µM | UACC-257 > 100 µM | EKVX > 100 µM | U-251 > 100 µM | RXF 393 > 100 µM | MDA-N > 100 µM | KM12 > 100 µM | NCI-H522 > 100 µM | SK-MEL-2 > 100 µM | HCT-116 > 100 µM | OVCAR-3 > 100 µM | PC-3 > 100 µM | ACHN > 100 µM | NCI/ADR-RES > 100 µM
